According to publication PMC11801715, “Activating PKC-ε induces HIV expression with improved tolerability” (PLOS Pathogens, 2025):

Tests used:
[1] = Free fraction in cell culture media; assay type: in vitro ADME
[2] = system: classical and novel PKC isoforms; assay: Estimated PKC inhibition in cell culture from Z'-LYTE IC50 and free fraction; assay type: biochemical; conditions: 5 µM, 46% free in cell culture media
Source text: (§1) In this assay, phosphorylation of a synthetic FRET-peptide substrate protects the peptide from cleavage by the development reagent and prevents disruption of the FRET signal.

[3] = system: latent HIV in total CD4+ T cells; assay: microbe, parasite or virus in culture; assay type: cell-based, HIV-1; conditions: inhibitor 5 μM with DMSO, no agonist
Method: Peripheral blood mononuclear cells and CD4^+ T cells used for evaluating PKC agonist and inhibitor molecules were isolated from leukopaks of selected participants as described previously. Isolated CD4^+ T cells (5×10^6 cells/well) were added to 24-well tissue culture plates in 2.5 mL of RPMI medium containing 100 nM each of elvitegravir and efavirenz. Cells were stimulated with DMSO (vehicle control) or the indicated concentrations of PKC agonist molecules. Cells were pretreated with PKC isoform inhibitors (Selleck Chemicals) for 1 hour before addition of PKC agonist at indicated concentrations and maintained at 37 °C, 5% CO2 for 3 days. Cell supernatants from each well were analyzed using the Cobas […] system for quantification of HIV-1 RNA using the HIV-1 test v2.0 kit (Roche Diagnostics).

PKC-β1 = PKC-β1 (Homo sapiens, UniProt P05771); assay: Z'-LYTE kinase activity assay; assay type: biochemical; conditions: ATP at Kmapp, 2 μM peptide substrate; read-out: IC50 for classical PKC isoforms, PKC-β1
Source text: as §1

PKC-ε = target: T1, PKC-ε (Homo sapiens, UniProt Q02156); assay: Z'-LYTE kinase activity assay; assay type: biochemical
T1 sequence (Q02156 1-737): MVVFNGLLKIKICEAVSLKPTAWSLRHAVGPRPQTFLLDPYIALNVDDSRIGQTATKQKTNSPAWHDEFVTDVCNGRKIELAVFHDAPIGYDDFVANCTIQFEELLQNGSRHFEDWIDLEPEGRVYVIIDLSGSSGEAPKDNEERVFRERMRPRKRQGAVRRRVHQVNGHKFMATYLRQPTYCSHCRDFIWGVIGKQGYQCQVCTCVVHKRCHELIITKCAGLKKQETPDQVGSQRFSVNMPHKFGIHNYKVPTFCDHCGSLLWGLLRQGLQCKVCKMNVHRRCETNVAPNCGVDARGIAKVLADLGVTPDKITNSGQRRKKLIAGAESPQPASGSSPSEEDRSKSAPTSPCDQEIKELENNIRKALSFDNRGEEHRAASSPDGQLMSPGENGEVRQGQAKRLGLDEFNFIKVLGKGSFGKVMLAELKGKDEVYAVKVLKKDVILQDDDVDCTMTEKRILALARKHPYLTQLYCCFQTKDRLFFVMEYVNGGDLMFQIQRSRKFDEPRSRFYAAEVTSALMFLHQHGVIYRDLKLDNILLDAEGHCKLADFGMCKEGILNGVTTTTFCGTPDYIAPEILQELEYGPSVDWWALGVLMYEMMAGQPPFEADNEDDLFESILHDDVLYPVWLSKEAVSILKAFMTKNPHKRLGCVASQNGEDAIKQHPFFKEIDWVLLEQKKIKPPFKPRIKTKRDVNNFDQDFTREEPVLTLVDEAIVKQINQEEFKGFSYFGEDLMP
Source text: as §1

PKC-γ = PKC-γ (Homo sapiens, UniProt P05129); assay: Z'-LYTE kinase activity assay; assay type: biochemical; conditions: ATP at Kmapp, 2 μM peptide substrate; read-out: IC50 for classical PKC isoforms, PKC-γ
Source text: as §1

PKC-α = PKC-α (Homo sapiens, UniProt P17252); assay: Z'-LYTE kinase activity assay; assay type: biochemical; conditions: ATP at Kmapp, 2 μM peptide substrate; read-out: IC50 for classical PKC isoforms, PKC-α
Source text: as §1

PKC-θ = PKC-θ (Homo sapiens, UniProt Q04759); assay: Z'-LYTE kinase activity assay; assay type: biochemical; conditions: ATP at Kmapp, 2 μM peptide substrate; read-out: IC50 for novel PKC isoforms, PKC-θ
Source text: as §1

PKC-η = PKC-η (Homo sapiens, UniProt P24723); assay: Z'-LYTE kinase activity assay; assay type: biochemical; conditions: ATP at Kmapp, 2 μM peptide substrate; read-out: IC50 for novel PKC isoforms, PKC-η
Source text: as §1

PKC-β2 = PKC-β2 (Homo sapiens, UniProt P05771); assay: Z'-LYTE kinase activity assay; assay type: biochemical; conditions: ATP at Kmapp, 2 μM peptide substrate; read-out: IC50 for classical PKC isoforms, PKC-β2
Source text: as §1

PKC-δ = PKC-δ (Homo sapiens, UniProt Q05655); assay: Z'-LYTE kinase activity assay; assay type: biochemical; conditions: ATP at Kmapp, 2 μM peptide substrate; read-out: IC50 for novel PKC isoforms, PKC-δ
Source text: as §1

Chain of PKC-β2 (P05771 1-673 isoform P05771-2): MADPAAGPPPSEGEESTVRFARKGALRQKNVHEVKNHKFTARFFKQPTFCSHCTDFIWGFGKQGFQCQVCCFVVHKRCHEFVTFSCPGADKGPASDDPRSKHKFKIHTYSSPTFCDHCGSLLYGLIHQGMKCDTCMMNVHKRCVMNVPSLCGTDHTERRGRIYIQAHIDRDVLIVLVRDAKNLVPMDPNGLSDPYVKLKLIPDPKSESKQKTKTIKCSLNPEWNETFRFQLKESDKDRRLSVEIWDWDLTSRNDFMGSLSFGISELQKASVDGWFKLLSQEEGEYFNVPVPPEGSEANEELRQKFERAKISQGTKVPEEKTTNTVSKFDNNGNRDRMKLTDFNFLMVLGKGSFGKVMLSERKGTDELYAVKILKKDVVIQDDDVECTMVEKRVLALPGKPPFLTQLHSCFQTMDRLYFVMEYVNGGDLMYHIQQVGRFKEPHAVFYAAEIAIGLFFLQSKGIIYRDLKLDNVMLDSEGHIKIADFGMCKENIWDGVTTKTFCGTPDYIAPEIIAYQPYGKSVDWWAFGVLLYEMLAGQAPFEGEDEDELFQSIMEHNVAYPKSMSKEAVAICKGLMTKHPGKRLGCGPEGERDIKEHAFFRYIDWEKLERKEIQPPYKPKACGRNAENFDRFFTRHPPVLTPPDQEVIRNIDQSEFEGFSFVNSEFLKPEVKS
Chain of PKC-η (P24723 whole entry, canonical isoform): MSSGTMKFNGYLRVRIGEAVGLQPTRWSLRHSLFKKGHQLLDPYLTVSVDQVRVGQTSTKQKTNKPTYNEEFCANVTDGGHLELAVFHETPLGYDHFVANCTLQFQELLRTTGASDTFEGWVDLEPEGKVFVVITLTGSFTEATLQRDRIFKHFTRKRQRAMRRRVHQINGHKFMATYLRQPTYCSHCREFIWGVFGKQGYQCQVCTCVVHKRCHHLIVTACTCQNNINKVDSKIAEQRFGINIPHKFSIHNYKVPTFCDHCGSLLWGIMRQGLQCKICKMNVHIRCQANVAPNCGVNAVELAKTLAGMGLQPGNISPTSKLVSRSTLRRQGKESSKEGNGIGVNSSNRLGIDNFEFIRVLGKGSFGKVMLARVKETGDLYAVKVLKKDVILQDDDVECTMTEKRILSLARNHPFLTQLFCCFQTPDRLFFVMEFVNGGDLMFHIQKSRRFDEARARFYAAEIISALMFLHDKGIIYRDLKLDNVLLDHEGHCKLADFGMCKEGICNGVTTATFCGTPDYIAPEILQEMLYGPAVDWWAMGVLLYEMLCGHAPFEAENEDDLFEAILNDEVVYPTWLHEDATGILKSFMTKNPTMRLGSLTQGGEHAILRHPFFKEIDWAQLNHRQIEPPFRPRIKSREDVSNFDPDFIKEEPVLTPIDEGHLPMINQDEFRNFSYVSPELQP
Chain of PKC-δ (Q05655 whole entry, canonical isoform): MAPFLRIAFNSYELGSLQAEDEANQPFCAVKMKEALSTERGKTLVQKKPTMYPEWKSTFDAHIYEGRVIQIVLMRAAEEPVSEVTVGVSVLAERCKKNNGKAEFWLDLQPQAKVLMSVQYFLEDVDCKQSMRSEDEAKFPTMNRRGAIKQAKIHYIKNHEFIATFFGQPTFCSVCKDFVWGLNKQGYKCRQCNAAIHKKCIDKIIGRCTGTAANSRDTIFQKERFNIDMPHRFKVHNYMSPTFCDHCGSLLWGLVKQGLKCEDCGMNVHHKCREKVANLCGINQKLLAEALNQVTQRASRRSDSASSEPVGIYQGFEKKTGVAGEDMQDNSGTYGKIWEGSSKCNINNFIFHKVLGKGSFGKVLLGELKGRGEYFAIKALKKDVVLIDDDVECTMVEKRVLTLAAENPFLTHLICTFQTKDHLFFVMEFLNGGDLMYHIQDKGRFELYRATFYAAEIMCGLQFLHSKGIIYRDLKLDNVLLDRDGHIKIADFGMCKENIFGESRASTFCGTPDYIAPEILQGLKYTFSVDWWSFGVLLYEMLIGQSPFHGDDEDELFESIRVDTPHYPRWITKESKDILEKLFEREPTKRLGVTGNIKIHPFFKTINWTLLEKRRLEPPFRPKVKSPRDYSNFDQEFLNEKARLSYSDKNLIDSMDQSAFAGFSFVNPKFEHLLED
Chain of PKC-θ (Q04759 whole entry, canonical isoform): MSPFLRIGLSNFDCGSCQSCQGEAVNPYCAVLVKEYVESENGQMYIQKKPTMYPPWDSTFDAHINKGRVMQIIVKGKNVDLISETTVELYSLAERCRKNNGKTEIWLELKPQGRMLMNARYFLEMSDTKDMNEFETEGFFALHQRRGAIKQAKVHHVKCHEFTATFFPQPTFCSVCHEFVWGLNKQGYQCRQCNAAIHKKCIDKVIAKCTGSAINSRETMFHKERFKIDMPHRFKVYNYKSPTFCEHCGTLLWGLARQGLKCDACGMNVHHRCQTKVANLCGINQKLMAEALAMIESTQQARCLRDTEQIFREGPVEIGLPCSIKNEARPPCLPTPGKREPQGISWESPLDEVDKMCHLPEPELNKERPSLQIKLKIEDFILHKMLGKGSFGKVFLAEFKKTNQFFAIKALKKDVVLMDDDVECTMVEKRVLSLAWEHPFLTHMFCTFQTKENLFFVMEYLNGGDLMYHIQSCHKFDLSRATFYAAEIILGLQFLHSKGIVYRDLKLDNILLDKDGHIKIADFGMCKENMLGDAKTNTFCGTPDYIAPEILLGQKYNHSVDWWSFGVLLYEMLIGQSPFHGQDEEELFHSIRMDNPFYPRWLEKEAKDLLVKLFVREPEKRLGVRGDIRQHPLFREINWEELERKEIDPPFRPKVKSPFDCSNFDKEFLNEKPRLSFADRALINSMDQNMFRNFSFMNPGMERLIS
Chain of PKC-β1 (P05771 whole entry, canonical isoform): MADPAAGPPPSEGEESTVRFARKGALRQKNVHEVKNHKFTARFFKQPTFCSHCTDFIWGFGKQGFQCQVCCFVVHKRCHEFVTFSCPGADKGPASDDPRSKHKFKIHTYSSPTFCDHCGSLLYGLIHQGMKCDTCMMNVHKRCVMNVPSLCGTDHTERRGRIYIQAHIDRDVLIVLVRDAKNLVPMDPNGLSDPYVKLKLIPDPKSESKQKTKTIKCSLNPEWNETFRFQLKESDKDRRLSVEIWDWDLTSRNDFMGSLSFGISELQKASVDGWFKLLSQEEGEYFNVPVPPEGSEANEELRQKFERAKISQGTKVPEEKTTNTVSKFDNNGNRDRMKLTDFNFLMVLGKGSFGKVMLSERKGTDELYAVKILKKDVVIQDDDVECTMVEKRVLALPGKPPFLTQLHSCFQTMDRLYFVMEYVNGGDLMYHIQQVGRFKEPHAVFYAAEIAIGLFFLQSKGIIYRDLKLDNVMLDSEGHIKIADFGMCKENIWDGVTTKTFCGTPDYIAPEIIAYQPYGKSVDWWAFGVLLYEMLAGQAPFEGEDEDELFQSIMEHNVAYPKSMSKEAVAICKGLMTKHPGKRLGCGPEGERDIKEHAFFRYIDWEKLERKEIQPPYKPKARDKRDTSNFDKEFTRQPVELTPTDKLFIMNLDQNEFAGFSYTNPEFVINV

## CN(C)CCCn1cc(C2=C(c3c[nH]c4ccccc34)C(=O)NC2=O)c2ccccc21 [Gӧ-6850]
[1]
  free in cell culture media: 46%
[2]
  estimated inhibition of all classical and novel isoforms, except PKC-ε: > 90%
[3]
  HIV RNA Fold∆ over DMSO, Geomean: 1.2 fold
PKC-β1
  IC50: 0.457 nM
PKC-ε; 5 µM, 46% free in cell culture media, read-out: estimated inhibition of PKC-ε
  inhibition at 5 µM: 70%
PKC-ε; ATP at Kmapp, 2 μM peptide substrate, read-out: IC50 for novel PKC isoforms, PKC-ε
  IC50: 67.6 nM
PKC-γ
  IC50: 2.18 nM
PKC-α
  IC50: 2.53 nM
PKC-θ
  IC50: 3 nM
PKC-η
  IC50: 11.3 nM
PKC-β2
  IC50: 0.331 nM
PKC-δ
  IC50: 9.63 nM
